pIC50: −log10 of the molar value. Read-outs that look alike come from different tables or passages of the source.

For one assay, the target named is EZH2 (rPRC2) (Homo sapiens, UniProt Q15910). The experiment in a line: EZH2 assay: rPRC2, biotinylated oligonucleosomes, 3H SAM methyl transfer (FlashPlate scintillation). In kind it is biochemical. The following applies: biotinylated oligonucleosome substrate. Here is the method: Assays were carried out by mixing rPRC2 together with biotinylated oligonucleosome substrates in the presence of the radio-labeled enzyme co-factor, S-adenosyl-1-methionine (^3H SAM) (Perkin Elmer) and monitoring the enzymatically mediated transfer of tritiated methyl groups from ^3H SAM to histone lysine residues. The amount of resulting tritiated methyl histone product was measured by first capturing the biotinylated oligonucleosomes in streptavidin (SAV) coated FlashPlates (Perkin Elmer), followed by a wash step to remove un-reacted ^3H SAM, and then counting on a TopCount NXT 384 well plate scintillation counter (Perkin Elmer). The final assay conditions for EZH2 were as follows: 50 mM Tris Buffer pH 8.5, 1 mM DTT, 69 μM Brij-35 detergent, 5.0 mM MgCl2, 0.1 mg/mL BSA, 0.2 μM ^3H SAM, 0.2 μM biotinylated oligonucleosomes, 3.6 μM H3K27 mc3 peptide and 2 nM EZH2.
A 12.5 μL volume of the HMT enzyme, H3K27me3 peptide and oligonucleosome substrate in assay buffer was added to each well of the assay plate using a Multidrop Combi (ThermoFisher). Compounds were pre-incubated with the enzyme for 20 min, followed by initiation of the methyltransferase reaction by addition of 12.5 μL of ^3H SAM in assay buffer (final volume=25 μL). The final concentrations of compounds ranged from a top default concentration of 80 μM down to 0.16 μM in ten 2-fold dilution steps. Reactions were carried out for 60 minutes and quenched with 20 μL per well of 1.96 mM SAH, 50 mM Tris pH 8.5, 200 mM EDTA. Stopped reactions were transferred to SAV coated Flashplates (Perkin Elmer), incubated for 120 min, washed with a plate washer, and then read on the TopCount NXT (1.0 min/well) to measure the amount of methyl histone product formed during the reaction.

In the next assay the target is Y641N EZH2 (Homo sapiens, UniProt Q15910, Y641N). Put plainly: Y641N EZH2 assay: as EZH2 assay, with reconstituted H3K27Me2 oligonucleosomes as substrate. It is filed as biochemical.
[1] abbreviates: EZH2 IC50, wild-type EZH2 (rPRC2).
The mark [2] stands for this setting: Y641N EZH2 IC50, Y641N mutant EZH2, H3K27Me2 oligonucleosome substrate.
Setting [3] is: wild-type EZH2 (rPRC2), read-out: EZH2 IC50.
The mark [4] stands for this setting: Y641N mutant EZH2, H3K27Me2 oligonucleosome substrate, read-out: Y641N EZH2 IC50.

Chain of EZH2 (rPRC2) (Q15910 whole entry): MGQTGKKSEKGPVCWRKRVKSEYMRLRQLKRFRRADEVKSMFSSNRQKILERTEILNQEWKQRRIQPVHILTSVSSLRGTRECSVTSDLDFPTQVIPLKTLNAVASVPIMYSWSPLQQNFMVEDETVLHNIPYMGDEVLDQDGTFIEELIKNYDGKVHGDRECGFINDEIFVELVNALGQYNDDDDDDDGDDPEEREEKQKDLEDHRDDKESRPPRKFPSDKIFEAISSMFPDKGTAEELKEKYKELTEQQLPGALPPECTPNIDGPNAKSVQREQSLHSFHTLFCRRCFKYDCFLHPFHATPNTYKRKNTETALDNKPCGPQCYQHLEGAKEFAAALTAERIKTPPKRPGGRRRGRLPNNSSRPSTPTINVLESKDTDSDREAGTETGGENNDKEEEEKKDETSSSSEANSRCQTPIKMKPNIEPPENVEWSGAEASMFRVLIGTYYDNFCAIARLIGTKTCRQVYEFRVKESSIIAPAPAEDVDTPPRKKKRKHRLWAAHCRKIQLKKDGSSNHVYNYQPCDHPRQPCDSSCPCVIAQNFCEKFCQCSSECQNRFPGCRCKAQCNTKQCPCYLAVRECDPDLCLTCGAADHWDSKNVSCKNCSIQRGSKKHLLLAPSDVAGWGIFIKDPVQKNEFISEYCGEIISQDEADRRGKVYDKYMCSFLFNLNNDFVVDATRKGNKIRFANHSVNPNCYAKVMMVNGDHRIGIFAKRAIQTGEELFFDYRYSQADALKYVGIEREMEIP
Chain of EZH2 (rPRC2) (O75530 whole entry partner): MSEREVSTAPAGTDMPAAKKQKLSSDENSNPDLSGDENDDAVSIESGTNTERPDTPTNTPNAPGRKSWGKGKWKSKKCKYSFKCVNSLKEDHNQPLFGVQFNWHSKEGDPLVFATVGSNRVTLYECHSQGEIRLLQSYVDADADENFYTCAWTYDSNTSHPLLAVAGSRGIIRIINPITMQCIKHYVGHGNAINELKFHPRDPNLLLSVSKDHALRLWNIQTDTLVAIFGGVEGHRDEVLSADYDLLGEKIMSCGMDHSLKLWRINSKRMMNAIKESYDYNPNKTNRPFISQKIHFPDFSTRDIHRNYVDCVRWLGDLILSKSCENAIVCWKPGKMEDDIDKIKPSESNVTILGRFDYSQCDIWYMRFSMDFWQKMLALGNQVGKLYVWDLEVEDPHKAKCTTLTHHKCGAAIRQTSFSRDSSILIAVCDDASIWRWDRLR
Chain of EZH2 (rPRC2) (Q15022 whole entry partner): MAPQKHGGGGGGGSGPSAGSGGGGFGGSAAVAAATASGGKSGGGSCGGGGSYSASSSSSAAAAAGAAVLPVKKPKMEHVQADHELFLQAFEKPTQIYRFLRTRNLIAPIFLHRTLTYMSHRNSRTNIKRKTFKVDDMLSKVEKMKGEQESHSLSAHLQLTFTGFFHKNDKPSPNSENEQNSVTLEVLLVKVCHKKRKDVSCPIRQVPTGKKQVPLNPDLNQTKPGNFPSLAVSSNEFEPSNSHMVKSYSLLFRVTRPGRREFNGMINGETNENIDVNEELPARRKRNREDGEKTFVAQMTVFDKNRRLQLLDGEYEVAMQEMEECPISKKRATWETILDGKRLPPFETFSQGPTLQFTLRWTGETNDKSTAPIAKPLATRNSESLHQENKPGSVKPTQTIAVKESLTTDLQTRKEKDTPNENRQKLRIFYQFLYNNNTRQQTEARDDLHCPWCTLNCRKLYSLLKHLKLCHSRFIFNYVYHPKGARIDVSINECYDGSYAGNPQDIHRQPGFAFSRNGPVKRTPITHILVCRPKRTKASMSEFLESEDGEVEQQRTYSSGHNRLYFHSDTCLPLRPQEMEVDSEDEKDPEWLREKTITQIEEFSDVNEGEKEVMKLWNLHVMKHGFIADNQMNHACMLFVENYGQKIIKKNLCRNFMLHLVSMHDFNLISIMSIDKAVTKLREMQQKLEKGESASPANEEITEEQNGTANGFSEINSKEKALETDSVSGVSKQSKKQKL
Chain of Y641N EZH2 (Q15910 whole entry Y641N): as the sequence (Q15910 whole entry) above, with Y641N counted along it
Chain of Y641N EZH2 (O75530 whole entry partner): as the sequence (O75530 whole entry partner) above
Chain of Y641N EZH2 (Q15022 whole entry partner): as the sequence (Q15022 whole entry partner) above

Take `COc1cc(C)[nH]c(=O)c1CNC(=O)c1c(C)n(C(C)C2CCC(F)(F)CC2)c2ncncc12` (racemic) [Compound 334, (±)-7-(1-(4,4-difluorocyclohexyl)ethyl)-N-((4-methoxy-6-methyl-2-oxo-1,2-dihydropyridin-3-yl)methyl)-6-methyl-7H-pyrrolo[2,3-d]pyrimidine-5-carboxamide]: the results for the pIC50 at EZH2 (rPRC2) (setting [1]) and at Y641N EZH2 (setting [2]) were over 7.00 and 6.00 to 7.00, respectively.
`Cc1cc(C)c(CNC(=O)c2cnn(C(C)c3ccccc3)c2C)c(O)n1` (single isomer, unassigned) [Compound 107, (R or S)—N-((2-hydroxy-4,6-dimethylpyridin-3-yl)methyl)-5-methyl-1-(1-phenylethyl)-1H-pyrazole-4-carboxamide]: the pIC50 on EZH2 (rPRC2) (setting [3]) and on Y641N EZH2 (setting [4]) was under 5.00 each time.
For `CCC(C)n1c(C)c(C(=O)NCc2c(C)cc(C)[nH]c2=O)c2cccnc21` (single isomer, unassigned) [Compound 195, (R or S)-1-(sec-butyl)-N-((4,6-dimethyl-2-oxo-1,2-dihydropyridin-3-yl)methyl)-2-methyl-1H-pyrrolo[2,3-b]pyridine-3-carboxamide], on EZH2 (rPRC2) (setting [1]), the negative logarithm of the IC50 (pIC50) was 6.00 to 7.00. The “Y641N EZH2 IC50” value at Y641N EZH2 (Y641N mutant EZH2, H3K27Me2 oligonucleosome substrate) was “*(0.5 μM)”.
Regarding `Cc1cc(C)c(COC(=O)c2c(C)n(C3CCc4ccccc43)c3ccccc23)c(=O)[nH]1` (single isomer, unassigned) [Compound 213, (R or S)-(4,6-dimethyl-2-oxo-1,2-dihydropyridin-3-yl)methyl 1-(2,3-dihydro-1H-inden-1-yl)-2-methyl-1H-indole-3-carboxylate], the pIC50 was over 7.00 against EZH2 (rPRC2) (setting [1]) and 6.00 to 7.00 against Y641N EZH2 (setting [2]).
As for `COCC(C)n1c(C)c(C(=O)NCc2c(OC)cc(C)[nH]c2=O)c2ccccc21` (single isomer, unassigned) [Compound 223, N-((4-methoxy-6-methyl-2-oxo-1,2-dihydropyridin-3-yl)methyl)-1-(1-methoxypropan-2-yl)-2-methyl-1H-indole-3-carboxamide], the pIC50 against EZH2 (rPRC2) (setting [1]) was over 7.00; against Y641N EZH2 (setting [2]), 6.00 to 7.00.
In the same order, the values of `Cc1cc(C)c(CNC(=O)c2c(C)n(C(C)c3cccc(C(N)=O)c3)c3ccccc23)c(=O)[nH]1` (single isomer, unassigned) [Compound 225, (R or S)-1-(1-(3-carbamoylphenyl)ethyl)-N-((4,6-dimethyl-2-oxo-1,2-dihydropyridin-3-yl)methyl)-2-methyl-1H-indole-3-carboxamide] are over 7.00 and over 7.00.
In the same order, the values of `Cc1cc(C)c(CNC(=O)c2c(C)n(C(C)c3cccc(C(N)=O)c3)c3ccccc23)c(=O)[nH]1` (single isomer, unassigned) [Compound 226, (R or S)-1-(1-(3-carbamoylphenyl)ethyl)-N-((4,6-dimethyl-2-oxo-1,2-dihydropyridin-3-yl)methyl)-2-methyl-1H-indole-3-carboxamide] are 6.00 to 7.00 and 5.00 to 6.00.
Consider `Cc1cc(C)c(CNC(=O)c2c(C)n(C(C)c3cccc(C#N)c3)c3ccccc23)c(=O)[nH]1` (single isomer, unassigned) [Compound 228, (R or S)-1-(1-(3-cyanophenyl)ethyl)-N-((4,6-dimethyl-2-oxo-1,2-dihydropyridin-3-yl)methyl)-2-methyl-1H-indole-3-carboxamide], for which the pIC50 on EZH2 (rPRC2) (setting [1]) and against Y641N EZH2 (setting [2]) was 6.00 to 7.00 in each case.
In the case of `Cc1cc(C)c(CNC(=O)c2c(C)n(C(C)c3ccccc3)c3cnccc23)c(=O)[nH]1` (single isomer, unassigned) [Compound 247, (R or S)—N-((4,6-dimethyl-2-oxo-1,2-dihydropyridin-3-yl)methyl)-2-methyl-1-(1-phenylethyl)-1H-pyrrolo[2,3-c]pyridine-3-carboxamide], the pIC50 at EZH2 (rPRC2) (setting [1]) and at Y641N EZH2 (setting [2]) was over 7.00 in each case.
`Cc1cc(C)c(CNC(=O)c2c(C)n(C(C)c3ccccc3)c3cnccc23)c(=O)[nH]1` (single isomer, unassigned) [Compound 248, (R or S)—N-((4,6-dimethyl-2-oxo-1,2-dihydropyridin-3-yl)methyl)-2-methyl-1-(1-phenylethyl)-1H-pyrrolo[2,3-c]pyridine-3-carboxamide]: the negative logarithm of the IC50 (pIC50) is over 7.00 on EZH2 (rPRC2) (read-out: EZH2 IC50, wild-type EZH2 (rPRC2)) and 6.00 to 7.00 against Y641N EZH2 (setting [2]).
With `Cc1cc(C)c(CNC(=O)c2c(C)n(C(C)C3CC3)c3ncccc23)c(=O)[nH]1` (single isomer, unassigned) [Compound 252, (R or S)-(±)-1-(1-cyclopropylethyl)-N-((4,6-dimethyl-2-oxo-1,2-dihydropyridin-3-yl)methyl)-2-methyl-1H-pyrrolo[2,3-b]pyridine-3-carboxamide], the values for the pIC50 against EZH2 (rPRC2) (setting [1]) and on Y641N EZH2 (setting [2]) were over 7.00 and 6.00 to 7.00, respectively.
In the same order, the values of `COCC(C)n1c(C)c(C(=O)NCc2c(OC)cc(C)[nH]c2=O)c2cccnc21` (single isomer, unassigned) [Compound 257, (R or S)-N-((4-methoxy-6-methyl-2-oxo-1,2-dihydropyridin-3-yl)methyl)-1-(1-methoxypropan-2-yl)-2-methyl-1H-pyrrolo[2,3-b]pyridine-3-carboxamide] are 6.00 to 7.00 and 5.00 to 6.00.
`COc1cc(C)[nH]c(=O)c1CNC(=O)c1c(C)n(C(C)C(C)OC)c2ncccc12` (single isomer, unassigned) [Compound 267, N-((4-methoxy-6-methyl-2-oxo-1,2-dihydropyridin-3-yl)methyl)-1-((2R or 2S, 3R or 3S)-3-methoxybutan-2-yl)-2-methyl-1H-pyrrolo[2,3-b]pyridine-3-carboxamide]: the figures for the pIC50 at EZH2 (rPRC2) (setting [3]) and on Y641N EZH2 (setting [4]) were over 7.00 and 6.00 to 7.00, respectively.
Turning to `COc1cc(C)[nH]c(=O)c1CNC(=O)c1c(C)n(C(C)c2ccn(C)c(=O)c2)c2ncccc12` (single isomer, unassigned) [Compound 268, (R or S)-N-((4-methoxy-6-methyl-2-oxo-1,2-dihydropyridin-3-yl)methyl)-2-methyl-1-(1-(1-methyl-2-oxo-1,2-dihydropyridin-4-yl)ethyl)-1H-pyrrolo[2,3-b]pyridine-3-carboxamide], the pIC50 is over 7.00 against EZH2 (rPRC2) (setting [1]) and 6.00 to 7.00 on Y641N EZH2 (setting [2]).
As to `COc1cc(C)[nH]c(=O)c1CNC(=O)c1c(C)n(C(C)c2ccn(C)c(=O)c2)c2ncccc12` (single isomer, unassigned) [Compound 269, (R or S)-N-((4-methoxy-6-methyl-2-oxo-1,2-dihydropyridin-3-yl)methyl)-2-methyl-1-(1-(1-methyl-2-oxo-1,2-dihydropyridin-4-yl)ethyl)-1H-pyrrolo[2,3-b]pyridine-3-carboxamide], the pIC50 is 6.00 to 7.00 at EZH2 (rPRC2) (setting [1]) and 5.00 to 6.00 on Y641N EZH2 (setting [2]).
Regarding `COc1cc(C)[nH]c(=O)c1CNC(=O)c1c(C)n(C(C)CS(C)(=O)=O)c2ccccc12` (single isomer, unassigned) [Compound 278, (R or S)-N-((4-methoxy-6-methyl-2-oxo-1,2-dihydropyridin-3-yl)methyl)-2-methyl-1-(1-(methylsulfonyl)propan-2-yl)-1H-indole-3-carboxamide], the results for the pIC50 at EZH2 (rPRC2) (setting [1]) and against Y641N EZH2 (setting [2]) were 6.00 to 7.00 and 5.00 to 6.00, respectively.
The corresponding values for `COc1cc(C)[nH]c(=O)c1CNC(=O)c1c(C)n([C@H](C)[C@H](OC)C2CC2)c2ncccc12` (single isomer, unassigned) [Compound 285, 1-((1R or S, 2R or S)-1-cyclopropyl-1-methoxypropan-2-yl)-N-((4-methoxy-6-methyl-2-oxo-1,2-dihydropyridin-3-yl)methyl)-2-methyl-1H-pyrrolo[2,3-b]pyridine-3-carboxamide] are 6.00 to 7.00 and 5.00 to 6.00.
In the case of `COc1cc(C)[nH]c(=O)c1CNC(=O)c1c(C)n([C@H](C)[C@H](OC)C2CC2)c2ncccc12` (single isomer, unassigned) [Compound 292, 1-((1R or S, 2R or S)-1-cyclopropyl-1-methoxypropan-2-yl)-N-((4-methoxy-6-methyl-2-oxo-1,2-dihydropyridin-3-yl)methyl)-2-methyl-1H-pyrrolo[2,3-b]pyridine-3-carboxamide], the pIC50 was over 7.00 against EZH2 (rPRC2) (setting [1]) and 6.00 to 7.00 on Y641N EZH2 (setting [2]).
The corresponding values for `COc1cc(C)[nH]c(=O)c1CNC(=O)c1c(C)n(C(C)C(C)OC)c2ncccc12` (single isomer, unassigned) [Compound 302, N-((4-methoxy-6-methyl-2-oxo-1,2-dihydropyridin-3-yl)methyl)-1-((2R or 2S, 3R or 3S)-3-methoxybutan-2-yl)-2-methyl-1H-pyrrolo[2,3-b]pyridine-3-carboxamide] are 6.00 to 7.00 and 5.00 to 6.00.

(Values after patent US9371331B2, “Modulators of methyl modifying enzymes, compositions and uses thereof” (Constellation Pharmaceuticals, Inc., priority 2012, dated 2016).)
